Assay results: patent publication US10308686B2, “Gamma-AApeptides with potent and broad-spectrum antimicrobial activity” (priority 2012, dated 2019)
≈ marks a conversion by molar mass, not a printed value. Like-named read-outs stand apart in the source and are kept apart here. No end group written: not given here.

Legend:
[1] = system: Gram-positive and Gram-negative bacteria and the fungus C. albicans; experiment: Antimicrobial assays, whole panel (statements in words); assay type: cell-based
[2] = system: vancomycin-resistant E. faecalis (ATCC 700802); settings: for MIC, Gram positive E. faecalis: Table 7
[3] = system: human red blood cells (hRBC's); experiment: Hemolysis assay; assay type: cell-based; settings: for Hemolysis HC10 / Hemolysis HC50: red cells of human
Outline: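 Washed human RBCs (K2 EDTA) as 5% v/v suspension in PBS, mixed 1:1 with two-fold serial peptide dilutions (250–1.6 μg/ml, or 1 mg/ml–6.3 μg/ml for lipidated γ-AApeptides) in PBS; 1 h at 37 °C. Supernatant OD 360 nm, normalised to PBS (0%) and 0.2% Triton-X-100 (100%); H50 = concentration giving 50% hemolysis.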

[4] = system: multi-drug resistant P. aeruginosa ATCC 27853; settings: ATCC 27853
[5] = system: multi-drug resistant S. epidermidis (RP62A); settings: for MIC, Gram positive S. epidermidis: Table 7
[6] = system: K. pneumoniae (ATCC 13383)
[7] = system: methicillin-resistant S. aureus (ATCC 33592); settings: for MIC, Gram positive S. aureus: Table 7
S. aureus ATCC 33592 = assay type: cell-based; settings: serial passage at half-MIC
[8] = system: methicillin-resistant S. aureus (MRSA, USA100 lineage); settings: for MIC, MRSA USA100: Table 3
[9] = system: human red blood cells (hRBC's); settings: cited from earlier work

Row | Molecule | antimicrobial activity against the tested panel, in words [1] | MIC, Fungi, C. albicans (C. albicans (ATCC 10231); ATCC 10231) [µg/mL] | MIC, Gram positive E. faecalis [2] [µg/mL] | Hemolysis HC10 [3] [µg/mL] | Hemolysis HC50 [3] [µg/mL] | MIC, Gram negative P. aeruginosa [4] [µg/mL] | MIC, Gram negative E. coli (E. coli (JM109)) [µg/mL] | MIC, Gram positive S. epidermidis [5] [µg/mL] | MIC, Gram negative K. pneumoniae [6] [µg/mL] | MIC, Gram positive S. aureus [7] [µg/mL] | MIC, Gram positive B. subtilis (B. subtilis (BR151)) [µg/mL] | MIC, Fungi C. albicans (C. albicans (ATCC 10231); ATCC 10231) [µg/mL] | MIC, Fungi C. albicans (C. albicans (ATCC 10231); ATCC 10231, 48 h) [µg/mL] | MIC, E. faecalis (vancomycin-resistant) ([2]; Table 1) [µg/mL] | MIC, E. faecalis (vancomycin-resistant) ([2]; Table 3) [µg/mL] | Hemolysis (H50) [3] [µg/mL] | MIC, MRSA USA100 [8] [µg/mL] | MIC, E. coli (E. coli (JM109)) [µg/mL] | MIC, K. pneumoniae (causing pneumonia) [6] [µg/mL] | MIC, B. subtilis (B. subtilis (BR151)) [µg/mL] | other results
1 | CCCCCCCCCCCC(=O)N[C@@H](CCCCN)CN(CC(N)=O)C(=O)CCCN [Sequence 1] | not active toward any microorganism | >50 | >50 | 400 | > 500 | >50 | >50 | >50 | >50 | >50 | >50 |  |  |  |  |  |  |  |  |  | 
2 | CCn1cc(C(=O)O)c(=O)c2cc(F)c(N3CCNCC3)cc21 [norfloxacin, reference compound] |  |  |  |  |  |  |  |  |  |  |  |  |  |  |  |  |  |  |  |  | passages after which the MIC started to increase (S. aureus ATCC 33592): three
3 | CC(C)C[C@@H](CN(CC(=O)N[C@@H](CCCCN)CN(CC(N)=O)C(=O)CCc1ccccc1)C(=O)CCc1ccccc1)NC(=O)CN(C[C@H](CCCCN)NC(=O)CN(C[C@H](CCCCN)NC(=O)CN(C[C@H](CC(C)C)NC(=O)CN(C[C@H](CCCCN)NC(=O)CN(C[C@@H](N)CCCCN)C(=O)CCc1ccccc1)C(=O)CCc1ccccc1)C(=O)CCc1ccccc1)C(=O)CCc1ccccc1)C(=O)CCc1ccccc1 [γ5] |  | 8 (≈ 3.79 µM) | 5 (≈ 2.37 µM) | 75 | 300 | >50 | 3 (≈ 1.42 µM) | 5 (≈ 2.37 µM) | 5 (≈ 2.37 µM) | 5 (≈ 2.37 µM) | 2 (≈ 0.947 µM) | 5 to 10 | 5 to 10 | 3.1 to 6.25 | 3.1 to 6.3 | 300 | 5 (≈ 2.37 µM) | 2.5 to 5 | 5 (≈ 2.37 µM) | 2 (≈ 0.947 µM) | Hemolysis H10 [3]: 75 µg/mL; Hemolysis H50 [3]: 300 µg/mL; MIC, B. anthracis (lethal bioweapon) (B. anthracis; Table 1): 5 µg/mL (≈ 2.37 µM); MIC, MRSA USA100 (leading hospital-associated strain) ([8]; Table 1): 5 µg/mL (≈ 2.37 µM); MIC, P. aeruginosa [4]: 25 to 50 µg/mL; MIC, S. epidermidis (multi-drug resistant) ([5]; Table 1): 3.1 to 6.25 µg/mL; MIC, S. epidermidis (multi-drug resistant) ([5]; Table 3): 3.1 to 6.3 µg/mL; MIC, S. aureus (methicillin-resistant) ([7]; Table 1): 5 µg/mL (≈ 2.37 µM)
4 | CCCCCCCCCCCCCCCC(=O)N[C@@H](C)CN(CC(=O)N[C@@H](C)CN(CC(=O)N[C@@H](CC(C)C)CN(CC(=O)N[C@@H](CC(C)C)CN(CC(=O)N[C@@H](CC(C)C)CN(CC(N)=O)C(=O)CCCN)C(=O)CCCN)C(=O)CCCN)C(C)=O)C(C)=O [γAA2] |  |  |  |  |  |  |  |  |  |  |  | 5 (≈ 3.87 µM) |  |  | 5 (≈ 3.87 µM) | >500 | 10 (≈ 7.74 µM) | 2.5 (≈ 1.94 µM) | 5 (≈ 3.87 µM) | 2.5 (≈ 1.94 µM) | MIC, B. anthracis (lethal bioweapon) (B. anthracis; Table 3): 5 µg/mL (≈ 3.87 µM); development of resistance (change in MIC over 17 passages), in words (S. aureus ATCC 33592; 17 days): did not cause resistance; MIC, P. aeruginosa [4]: 25 to 50 µg/mL; MIC, S. epidermidis (multi-drug resistant) ([5]; Table 3): 4 µg/mL (≈ 3.1 µM); MIC, S. aureus (methicillin-resistant) ([7]; Table 3): 4 µg/mL (≈ 3.1 µM)
5 | GIGKFLKKAKKFGKAFVKILKK-NH2 [Pexiganan, pexiganan] |  |  |  |  |  |  |  |  |  |  |  |  |  |  |  |  |  |  |  |  | Hemolysis (H50) [9]: >500 µg/mL; Hemolysis H10 [9]: 181 µg/mL; Hemolysis H50 [9]: 495 µg/mL
6 | KFKFKFKFKFKFKF-NH2 [pl, reference compound] | does not show any antimicrobial activity at all |  |  |  |  |  |  |  |  |  |  |  | >100 | >100 |  | >500 |  | >100 | >100 | >100 | MIC, S. epidermidis (multi-drug resistant) ([5]; Table 1): >100 µg/mL; MIC, S. aureus (methicillin-resistant) ([7]; Table 1): >100 µg/mL
